According to patent publication US8080579B2, “Compositions and methods for treatment of inflammatory bowel disease” (The Regents of The University of Michigan, priority 2005, dated 2011):

Experiments:
TNF-α = assay: IEL TNF-α mRNA by RT-PCR, short bowel syndrome model; type: in vivo; conditions: Sham operated mice, enalaprilat 0.6 mg/kg/day i.p., 7 days
Description: (§1) Short Bowel Syndrome Model: A 70% mid-small bowel resection was performed (i.e. bowel between 3.5 cm distal to the ligament of Treitz and 3.5 cm proximal to the ileocecal valve), followed by an end-to-end jejuno-ileal anastomosis with 7-0 monofilament, absorbable suture. Postoperatively a subcutaneous bolus of 3 ml 0.9% saline solution was given to maintain hydration status.
(§2) Sham operation: Mid-small bowel was transsected and re-anastomosed without bowel-resection.
(§3) IEL purification: Isolation of purified IEL from EC was performed by direct magnetic separation. Magnetic beads conjugated with antibody to CD45 (pan-lymphoid marker) were used to segregate IEL from EC (BioMag SelectaPure Anti-Mouse CD 45R Antibody Particles, Polyscience Inc., Warrington, Pa.). […]
Reverse transcriptase polymerase chain reaction (RT-PCR): mRNA (poly-A positive) was reversed transcribed into cDNA following a standard protocol. […] Gel bands were analyzed by DNA sequencing to ensure the correct product. Kodak EDAS System (Rochester, N.Y.) was used for imaging and quantification. Results were expressed as the ratio of the investigated mRNA over the β-actin mRNA expression.
(§4) To further understand the relevance of ACE expression on EC apoptosis, ACE-inhibition was used. […] After 1 week, mice were killed, EC apoptotic rates assessed, and IEL mRNA and protein isolated.

[1] = tested on: intestinal epithelial cells; assay: Epithelial cell proliferation (BrdU), short bowel syndrome model; type: in vivo, mice; conditions: FIG. 11
Description: Epithelial cell proliferation: Mice were given a dose of bromodeoxyuridine (BrdU) 1 to 2 hours prior to sacrifice. Tissues harvested from the intestine were subsequently stained for BrdU as a marker of cellular proliferation.

[2] = tested on: angiotensin converting enzyme (ACE); assay: IEL ACE mRNA by real time PCR, short bowel syndrome model; type: in vivo, mice; conditions: enalaprilat 0.6 mg/kg/day i.p., 7 days
Description: as §1, §2
as §3, with “Pa.). Magnetic separation was performed twice to further deplete EC.” for “Pa.).”
Real time PCR: Real-time PCR was run to better quantify actual changes in ACE expression. cDNA was also used for real time PCR. The same primers for ACE and β-actin were used as for conventional PCR, SYBR Green I was utilized for fluorescence. […] Ct-values of ACE and β-actin were converted to numbers of cDNA copies, and results expressed as the ratio of ACE over β-actin expression.
as §4

[3] = tested on: angiotensin converting enzyme (ACE); assay: IEL ACE protein by immunoblot, short bowel syndrome model; type: in vivo, mice; conditions: enalaprilat 0.6 mg/kg/day i.p., 7 days
Description: as §1, §2, §3
Immunoblot analysis: Protein was extracted from isolated IEL and immunoblots performed by using a Bio-Rad protein assay kit (Bio-Rad Laboratories, Hercules, Calif.), with standard methods. […] Expression for β-actin was determined in the same fashion by re-probing membranes with purified anti-mouse β-actin (1:12000, Sigma-Aldrich, St. Louis, Mo.). Results are expressed as the ratio of ACE over β-actin protein expression.
as §4

- IEL ACE mRNA (ratio of ACE-cDNA copies over β-actin-cDNA copies) ([2]; SBS mice): 0.63 ± 0.25
- IEL ACE mRNA (ratio of ACE-cDNA copies over β-actin-cDNA copies) ([2]; Sham operated mice): 0.66 ± 0.22
- IEL ACE protein (ratio of ACE over β-actin protein expression) ([3]; SBS mice): 0.14 ± 0.03
- IEL ACE protein (ratio of ACE over β-actin protein expression) ([3]; Sham operated mice): 0.13 ± 0.01
Compound: C[C@H](N[C@@H](CCc1ccccc1)C(=O)O)C(=O)N1CCC[C@H]1C(=O)O [ACE-I, enalaprilat]
- IEL TNF-α mRNA (ratio over β-actin mRNA) (TNF-α): 0.37 ± 0.07
- Epithelial cell proliferation [1]: increase significantly
